The source of these data is patent US20090155387A1, “STABLE PHARMACEUTICAL COMPOSITION COMPRISING BETA-LACTAM ANTIBIOTIC AND ION-CHELATING AGENT” (priority 2006, published 2009).

“Also recorded” adds a separate entry of the source.

A short description of data set [1]: HIAC light obscuration test (USP 788), particle content of solution preparations. Format: physicochemical. Particulars: HIAC test results, composition in the form of a liquid solution. The procedure:
Light obscuration testing was performed for solution preparations prepared with some of the compositions described in the examples according to the method described in the United States Pharmacopeia (USP 788) using HIAC-3000 light obscuration detector. Particle content is denoted by the number of particles per milliliter of solution. The value is an average of two measurements. Samples were tested at 1 hour and at 20 hours.

The nature of data set [2]: Amounts of β-lactam antibiotic, β-lactamase inhibitor and aminoglycoside antibiotic in solution over time (reverse-phase LC/HPLC). The class given is physicochemical. The method in brief:
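β-Lactam antibiotic and β-lactamase inhibitor quantified by C18 reverse-phase LC with UV-VIS detection; aminoglycoside by reverse-phase HPLC with evaporative light-scattering detection. Peak areas taken relative to an external standard, with each component at each time point given as a percentage of its initial amount.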

As for `O=C(O)CN(CCN(CC(=O)O)CC(=O)O)CC(=O)O` [EDTA, ethylenediamine tetraacetic acid], in data set [1], the “effect on aggregate particle formation in solution preparations” value is on record as “can significantly reduce aggregate particle formation; also recorded: effective in inhibiting formation of aggregate particles”.

`C[C@]1(Cn2ccnn2)[C@H](C(=O)O)N2C(=O)C[C@H]2S1(=O)=O` [Tazobactam sodium]: the “amount (percentage of initial amount)” value was determined as 102.2% in data set [2] (in Example 8 solution from freeze-dried powder stored 7 days at 0° C., redissolved in injectable water, 0 h); 97.53% in data set [2] (in Example 8 solution from freeze-dried powder stored 7 days at 0° C., redissolved in injectable water, 1 h); 94.16% in data set [2] (in Example 8 solution from freeze-dried powder stored 7 days at 0° C., redissolved in injectable water, 2 h); 94.58% in data set [2] (in Example 8 solution from freeze-dried powder stored 7 days at 0° C., redissolved in injectable water, 4 h); 95.45% in data set [2] (in Example 8 solution from freeze-dried powder stored 7 days at 0° C., redissolved in injectable water, 6 h); 94.44% in data set [2] (in Example 8 solution from freeze-dried powder stored 7 days at 0° C., redissolved in injectable water, 8 h). The “amount (percentage of initial amount)” value is given as 98.77% in data set [2] (in Example 16 solution, pH 6.5, room temperature, 0 h); 108.2% in data set [2] (in Example 16 solution, pH 6.5, room temperature, 1 h); 110.8% in data set [2] (in Example 16 solution, pH 6.5, room temperature, 2 h); 97.39% in data set [2] (in Example 16 solution, pH 6.5, room temperature, 4 h); 106.3% in data set [2] (in Example 16 solution, pH 6.5, room temperature, 6 h); 106.3% in data set [2] (in Example 16 solution, pH 6.5, room temperature, 8 h). Moreover, the “amount (percentage of initial amount)” value stood at 93.36% in data set [2] (in Example 21 solution, pH 6.75, room temperature (22° C.), 0 h); 104.8% in data set [2] (in Example 21 solution, pH 6.75, room temperature (22° C.), 1 h); 100.0% in data set [2] (in Example 21 solution, pH 6.75, room temperature (22° C.), 2 h); 96.58% in data set [2] (in Example 21 solution, pH 6.75, room temperature (22° C.), 4 h); 106.1% in data set [2] (in Example 21 solution, pH 6.75, room temperature (22° C.), 6 h); 107.1% in data set [2] (in Example 21 solution, pH 6.75, room temperature (22° C.), 8 h).

Gentamicin: the “amount (percentage of initial amount)” value is 101.7% in data set [2] (in Example 5 solution, pH 6.75, room temperature, 0 h); 104.2% in data set [2] (in Example 5 solution, pH 6.75, room temperature, 1 h); 96.1% in data set [2] (in Example 5 solution, pH 6.75, room temperature, 2 h); 100.1% in data set [2] (in Example 5 solution, pH 6.75, room temperature, 4 h).
